Assay results taken from patent US20190374536A1, “METHODS OF USING FASN INHIBITORS” (FORMA Therapeutics, Inc., priority 2016, published 2019).
Marks after values point to notes of the source that are not given here.

How the values were obtained:
[1] = test system: HFD rat model; experiment: High fat diet (HFD) fed rat model: steatosis, plasma/liver TG, plasma leptin; format: in vivo; conditions: HFD rats, 5 mg/kg QD
Description: Steatosis is caused by the accumulation of triglycerides (TG) in the liver, and as such, decreases in TG may represent a potential marker for activity on steatosis. The obese phenotype of HFD model is dependent on the incorporation of high dietary fat and DNL-derived fat. […] The key endpoints of this study were to evaluate the relationship between dose schedule and exposure with changes in liver steatosis score and liver TG. For these studies, male SD rats (6-8 week old) were fed a high fat diet (D124942, Research Diets Inc.) for four weeks to develop the obese phenotype and then sorted into treatment groups (N=8) based on mean body weight. […] Rosiglitazone 5 mg/kg QD was included as a positive control. Plasma and serum samples were collected weekly throughout the study. After 28 days of treatment, animals were sacrificed and liver and plasma samples were collected. Livers were fixed in formalin, processed for H&E staining, and evaluated by a pathologist specializing in NASH.
Two HFD studies were conducted. […] The second HFD study investigated the endpoints of steatosis and liver and plasma markers of lipogenesis (including TG and FFA).

[2] = test system: HSD rat model; experiment: High-sucrose diet (HSD) fed rat model: plasma/liver TG, plasma leptin; format: in vivo; conditions: HSD rats, 5 mg/kg QD
Description: A HSD represents an alternative experimental model for obesity and steatosis. In this model, 60-70% of the caloric intake is from simple carbohydrates, and thus, the primary source of increased TG is through DNL.
Male SD rats (6-8 week old) were fed a HSD (D10001, Research Diets Inc.) for six weeks to develop the obese phenotype and then sorted into treatment groups (N=8 each) based on mean body weight.

[3] = test system: TH17 cells differentiated in-vitro; experiment: TH17 differentiation assay: inhibition of IL-17 secretion; format: cell-based; design: activity: dose or concentration left out as unconfirmed; conditions: Homo sapiens; for inhibition at 1 µM: IL-17 secretion; for activity: TH17 cells differentiated in-vitro, read-out: IL17 secretion (% of DMSO)
Description: CD4+ T cells were isolated using CD4+ T cell isolation kit (Miltenyi Biotech), activated with CD3/CD28 microbeads and cultured for 7-10 days in the presence of IL-1β, IL-6, IL-21, I-23 and TGFβ and test compounds. Cells cultured with DMSO or without cytokines and/or microbeads were used as negative controls.
Read out: (1) At day 7-10, the supernatants were collected and tested for soluble 1-17. (2) Cells were also harvested and stained for intra-cellular IL-17A. (3) Cells were also stained separately by Annexin/PI for cell viability. (4) Pictures of cultures were taken for each condition.

Structure (SMILES)	inhibition at 1 µM [3] [%]	activity [3] [%]	other results
CN(CCOc1ccc(CC2SC(=O)NC2=O)cc1)c1ccccn1 (stereo not shown) [Rosiglitazone]	–	–	Plasma TG % Decrease of treatment group (mean) vs. vehicle treated HFD group (mean) ([1]; Day 14): 52.5%; Plasma TG Raw Data (Mean ± SEM) ([1]; Day 14): 0.48 ± 0.02 mmol/L; Plasma TG % Decrease of treatment group (mean) vs. vehicle treated HFD group (mean) ([1]; Day 26): 60.0%; Plasma TG Raw Data (Mean ± SEM) ([1]; Day 26): 0.46 ± 0.05 mmol/L; Liver TG % Decrease of treatment group (mean) vs. vehicle treated HFD group (mean) ([1]; Day 28): 70.0%; Liver TG Raw Data (Mean ± SEM) ([1]; Day 28): 17.2 ± 0.8 µmol/g; Plasma Leptin (Mean ± SEM) ([1]; Day 28): 16.0 ± 1.2 ng/mL; Plasma TG % Decrease of treatment group (mean) vs. vehicle treated HSD group (mean) ([2]; Day 14): 60.6%; Plasma TG Raw Data (Mean ± SEM) ([2]; Day 14): 1.07 ± 0.10 mmol/L; Plasma TG % Decrease of treatment group (mean) vs. vehicle treated HSD group (mean) ([2]; Day 26): 62.3%; Plasma TG Raw Data (Mean ± SEM) ([2]; Day 26): 1.24 ± 0.17 mmol/L; Liver TG % Decrease of treatment group (mean) vs. vehicle treated HSD group (mean) ([2]; Day 28): 41.2 * %; Liver TG Raw Data (Mean ± SEM) ([2]; Day 28): 8.5 ± 1.5 µmol/g; Plasma Leptin (Mean ± SEM) ([2]; Day 28): 12.6 ± 2.5 ng/mL
O=C(c1ccc(-c2nc3ccc(F)cc3o2)cc1)N1CCN(C(=O)C2(O)CC2)CC1 [compound 1]	46	54	–
O=C(c1ccc(-c2nc3ccc(Cl)cc3o2)cc1)N1CCN(C(=O)C2(O)CC2)CC1 [compound 2]	79	21	–
O=C(c1ccc(-c2cc(Cl)ccc2F)cc1)N1CCN(C(=O)C2(O)CC2)CC1 [compound 3]	75	25	–
Cn1cnc2cc(-c3ccc(C(=O)N4CCN(C(=O)C5(O)CC5)CC4)c(F)c3)ccc21 [compound 4]	85	15	–
Cn1ncc2ccc(-c3ccc(C(=O)N4CCN(C(=O)C5(N)CC5)CC4)cc3)cc21 [compound 5]	74	26	–
O=C(c1ccc(-c2nc3ccc(F)cc3o2)cc1F)N1CCN(C(=O)C2(O)CC2)CC1 [compound 6]	53	47	–
C[C@@H]1CN(C(=O)c2ccc(-c3nc4ccc(F)cc4o3)cc2)CCN1C(=O)C1(O)CC1 [compound 7]	66	34	–
C[C@H]1CN(C(=O)c2ccc(-c3ccc4c(c3)ncn4C)cc2F)CCN1C(=O)C1(O)CC1 [compound 8]	77	23	–
Cn1cnc2cc(-c3ccc(C(=O)N4CCN(C(=O)C5(O)CC5)CC4)cc3)ccc21 [compound 9]	76	24	–
C[C@H]1CN(C(=O)c2ccc(-c3nc4ccc(Cl)cc4o3)cc2)CCN1C(=O)C1(O)CC1 [compound 11]	67	33	–
